The text below walks through data of patent publication US20090203753A1, “7-(2-amino-1-hydroxy-ethyl)-4-hydroxybenzothiazol-2(3H)-one-derivatives as beta2 adrenoreceptor agonists” (AstraZeneca AB, priority 2005, published 2009).

Assay [1] addresses T1, recombinant human Dopamine Subtype D2s receptors (Homo sapiens, UniProt P14416).
T1 construct: purchased Perkin Elmer
Put plainly: Dopamine D2 selectivity assay, [3H]-spiperone binding to membranes. To be noted: read-out: D2 bind pIC50 (converted). As to the method:
Membranes containing recombinant human Dopamine Subtype D2s receptors were obtained from Perkin Elmer. These were diluted in Assay Buffer (50 mM HEPES, […], 120 mM NaCl, 0.1% gelatin, pH 7.4) to provide a final concentration of membranes that gave a clear window between maximum and minimum specific binding.
(§1) Assays were performed in U-bottomed 96-well polypropylene plates. 30 μL [^3H]-spiperone (0.16 nM final concentration) and 30 μL of test compound (10× final concentration) were added to each test well. For each assay plate 8 replicates were obtained for [^3H]-spiperone binding in the presence of 30 μL vehicle (10% (v/v) DMSO in Assay Buffer; defining maximum binding) or 30 μL Haloperidol (10 μM final concentration; defining non-specific binding (NSB)). Membranes were then added to achieve a final volume of 300 μL. The plates were incubated for 2 hours at room temperature and then filtered onto PEI coated GF/B filter plates, pre-soaked for 1 hour in Assay Buffer, using a 96-well plate Tomtec cell harvester. Five washes with 250 μL wash buffer (50 mM HEPES, 1 mM EDTA, 120 mM NaCl, pH 7.4) were performed at 4° C. to remove unbound radioactivity. The plates were dried then sealed from underneath using Packard plate sealers and MicroScint-O (50 μL) was added to each well. The plates were sealed (TopSeal A) and filter-bound radioactivity was measured with a scintillation counter (TopCount, Packard BioScience) using a 3-minute counting protocol.
(§2) Total specific binding (B0) was determined by subtracting the mean NSB from the mean maximum binding. NSB values were also subtracted from values from all other wells.

Assay [2] deals with T2, recombinant human α1D receptor (Homo sapiens, UniProt P25100).
T2 construct: expressed in transfected cells; host or cells: HEK293
T2 sequence (P25100 1-572): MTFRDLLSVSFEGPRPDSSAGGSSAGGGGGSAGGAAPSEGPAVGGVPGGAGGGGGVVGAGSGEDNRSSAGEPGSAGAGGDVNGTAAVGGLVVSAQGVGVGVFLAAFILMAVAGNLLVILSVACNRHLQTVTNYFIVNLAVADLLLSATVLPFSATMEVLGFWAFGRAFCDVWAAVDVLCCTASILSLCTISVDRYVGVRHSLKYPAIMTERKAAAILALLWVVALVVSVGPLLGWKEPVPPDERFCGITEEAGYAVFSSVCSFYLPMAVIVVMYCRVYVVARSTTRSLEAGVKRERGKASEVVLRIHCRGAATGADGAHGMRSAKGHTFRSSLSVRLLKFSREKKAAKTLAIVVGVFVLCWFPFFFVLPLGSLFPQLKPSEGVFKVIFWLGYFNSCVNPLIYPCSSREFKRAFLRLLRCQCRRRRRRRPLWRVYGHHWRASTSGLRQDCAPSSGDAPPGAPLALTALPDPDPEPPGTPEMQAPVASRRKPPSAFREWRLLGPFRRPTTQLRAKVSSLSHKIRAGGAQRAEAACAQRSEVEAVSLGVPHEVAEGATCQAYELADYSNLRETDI
Put plainly: Adrenergic α1D selectivity assay, [3H]-prazosin binding to HEK293 membranes. To be noted: read-out: α1 bind pIC50 (converted). As to the method: Membranes were prepared from human embryonic kidney 293 (HEK293) cells expressing recombinant human α1D receptor. These were diluted in Assay Buffer (50 mM HEPES, 1 mM EDTA, 0.1% gelatin, pH 7.4) to provide a final concentration of membranes that gave a clear window between maximum and minimum specific binding.
as §1, with “10” for “30”, “[^3H]-prazosin (0.3” for “[^3H]-spiperone (0.16”, “[^3H]-prazosin” for “[^3H]-spiperone”, “BMY7378” for “Haloperidol”, “100” for “300”, “EDTA,” for “EDTA, 120 mM NaCl,”
as §2

A further assay concerns the target T3, β2 receptor (Homo sapiens, UniProt P07550).
T3 construct: endogenous in cells; host or cells: H292 cells
Description: Alternative adrenergic β2 mediated cAMP production in H292 cells (60 minutes with test compound). It counts as cell-based. As to the method:
Alternative Adrenergic (β2 Mediated cAMP Production
H292 cells were grown in 225 cm2 flasks incubator at 37° C., 5% CO2 in RPMI medium containing, 10% (v/v) FBS (foetal bovine serum) and 2 mM L-glutamine.
Adherent H292 cells were removed from tissue culture flasks by treatment with Accutase™ cell detachment solution for 15 minutes. Flasks were incubated for 15 minutes in a humidified incubator at 37° C., 5% CO2. Detached cells were re-suspended in RPMI media (containing 10% (v/v) FBS and 2 mM L-glutamine) at 0.05×10^6 cells per mL. 5000 cells in 100 μL were added to each well of a tissue-culture-treated 96-well plate and the cells incubated overnight in a humidified incubator at 37° C., 5% CO2. The culture media was removed and cells were washed twice with 100 μL assay buffer and replaced with 50 μL assay buffer (HBSS solution containing 10 mM HEPES pH7.4 and 5 mM glucose). Cells were rested at room temperature for 20 minutes after which time 25 μL of rolipram (1.2 mM made up in assay buffer containing 2.4% (v/v) dimethylsulphoxide) was added. Cells were incubated with rolipram for 10 minutes after which time test compounds were added and the cells were incubated for 60 minutes at room temperature. The final rolipram concentration in the assay was 300 μM and final vehicle concentration was 1.6% (v/v) dimethylsulphoxide. The reaction was stopped by removing supernatants, washing once with 100 μL assay buffer and replacing with 50 μL lysis buffer. The cell monolayer was frozen at −80° C. for 30 minutes (or overnight).
The concentration of cAMP (cyclic adenosine monophosphate) in the cell lysate was determined using AlphaScreen™ methodology. The frozen cell plate was thawed for 20 minutes on a plate shaker then 10 μL of the cell lysate was transferred to a 96-well white plate. 40 μL of mixed AlphaScreen™ detection beads pre-incubated with biotinylated cAMP, was added to each well and the plate incubated at room temperature for 10 hours in the dark. The AlphaScreen™ signal was measured using an EnVision spectrophotometer (Perkin-Elmer Inc.) with the recommended manufacturer's settings. cAMP concentrations were determined by reference to a calibration curve determined in the same experiment using standard cAMP concentrations. Concentration response curves for agonists were constructed and data was fitted to a four parameter logistic equation to determine both the pEC50 and Intrinsic Activity. […]
On the technique in general: Cyclic AMP is a second messenger, typically raised through Gs and lowered through Gi signalling.

Structures are written as SMILES.

T3 sequence (P07550 whole entry): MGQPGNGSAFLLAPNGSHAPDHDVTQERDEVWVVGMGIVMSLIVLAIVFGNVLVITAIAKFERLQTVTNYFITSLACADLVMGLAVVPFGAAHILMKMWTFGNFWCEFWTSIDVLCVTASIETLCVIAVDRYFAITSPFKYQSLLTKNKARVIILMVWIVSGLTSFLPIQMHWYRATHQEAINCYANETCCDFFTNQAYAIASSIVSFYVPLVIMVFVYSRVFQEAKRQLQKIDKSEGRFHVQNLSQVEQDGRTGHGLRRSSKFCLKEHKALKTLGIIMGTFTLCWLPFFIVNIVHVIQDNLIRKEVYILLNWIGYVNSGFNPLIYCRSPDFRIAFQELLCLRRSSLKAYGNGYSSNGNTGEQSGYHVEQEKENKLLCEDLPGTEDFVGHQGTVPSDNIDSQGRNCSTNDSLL
T1 sequence (P14416 1-414 isoform P14416-2): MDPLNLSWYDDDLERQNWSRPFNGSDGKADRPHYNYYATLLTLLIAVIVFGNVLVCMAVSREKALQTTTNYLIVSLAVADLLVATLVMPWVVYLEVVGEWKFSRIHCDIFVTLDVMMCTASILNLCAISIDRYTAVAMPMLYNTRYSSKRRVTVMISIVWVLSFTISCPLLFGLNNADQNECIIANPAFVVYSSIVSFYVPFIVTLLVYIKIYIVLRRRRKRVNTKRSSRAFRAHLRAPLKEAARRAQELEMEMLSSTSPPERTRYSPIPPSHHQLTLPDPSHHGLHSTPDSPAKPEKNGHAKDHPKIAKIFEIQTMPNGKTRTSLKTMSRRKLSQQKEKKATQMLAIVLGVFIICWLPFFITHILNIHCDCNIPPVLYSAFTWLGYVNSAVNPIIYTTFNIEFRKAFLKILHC

As to `CCN(CC)CCN(CCNC[C@H](O)c1ccc(O)c2[nH]c(=O)sc12)C(=O)CCOCCc1ccccc1` [Example 7, N-[2-(Diethylamino)ethyl]-N-(2-{[(2R)-2-hydroxy-2-(4-hydroxy-2-oxo-2,3-dihydro-1,3-benzothiazol-7-yl)ethyl]amino}ethyl)-3-(2-phenylethoxy)propanamide], the IC50 in assay [1] and in assay [2] was 5.01 µM each time. Further, the EC50 at β2 receptor (cAMP, 60 minutes incubation with compound, 300 μM rolipram, read-out: β2 pEC50 (converted)) was 0.00398 µM. Also, the “β2 Int Act” value at β2 receptor (fraction relative to the maximum activity determined for formoterol, 60 minutes incubation) is 1.
